# Test results from patent US6355799B1, “Substituted benzene compounds, process for their preparation, and herbicidal and defoliant compositions containing them” (ISK Americas Incorporated, priority 1997, dated 2002).
# Key:
# Type in all cases: in vivo
# [1] = tested on: lambsquarters (Chenopodium album, CHEAL); test: Pre-emerge test, greenhouse herbicide activity screening; details: rated 14 days after application, 0 = no damage, 100 = complete death
# Outline: (§1)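 Rating: 0–100 visual injury, 14 DAA. Application: acetone, 187 l/ha, 15–1000 g ai/ha, flat-fan track sprayer with nozzle 40–45 cm above soil or canopy. Post-emerge runs used 0.25% v/v surfactant on 2–3 leaf plants.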
# [2] = tested on: barnyardgrass (Echinochloa crus-galli, ECHCG); test: as above; details: rated 14 days after application, 0 = no damage, 100 = complete death
# Outline: as §1
# [3] = tested on: sicklepod (Cassia obtusifolia, CASOB); test: as above; details: rated 14 days after application, 0 = no damage, 100 = complete death
# Outline: as §1
# [4] = tested on: large crabgrass (Digitaria sanguinalis, DIGSA); test: as above; details: rated 14 days after application, 0 = no damage, 100 = complete death
# Outline: as §1
# [5] = tested on: johnsongrass (Sorghum halepense, SORHA); test: as above; details: rated 14 days after application, 0 = no damage, 100 = complete death
# Outline: as §1
# [6] = tested on: green foxtail (Setaria viridis, SETVI); test: as above; details: rated 14 days after application, 0 = no damage, 100 = complete death
# Outline: as §1
# [7] = tested on: ivyleaf morningglory (Ipomoea hederacea, IPOHE); test: as above; details: rated 14 days after application, 0 = no damage, 100 = complete death
# Outline: as §1
# [8] = tested on: velvetleaf (Abutilon theophrasti, ABUTH); test: as above; details: rated 14 days after application, 0 = no damage, 100 = complete death
# Outline: as §1
# [9] = tested on: lambsquarters (Chenopodium album, CHEAL); test: Post-emerge test, greenhouse herbicide activity screening; details: post-emerge, 14 days after application, rating scale 0-100
# Outline: (§2)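 Herbicidal damage is scored 0 (none) to 100 (complete plant death) two weeks after a simulated field spray. Rates span 15–1000 g ai/ha, delivered in acetone at 187 l/ha. For post-emergence treatments, plants have 2–3 leaves and the spray carries 0.25% v/v non-ionic surfactant.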
# [10] = tested on: barnyardgrass (Echinochloa crus-galli, ECHCG); test: as above; details: post-emerge, 14 days after application, rating scale 0-100
# Outline: as §2
# [11] = tested on: redroot pigweed (Amaranthus retroflexus, AMARE); test: as above; details: post-emerge, 14 days after application, rating scale 0-100
# Outline: as §2
# [12] = tested on: sicklepod (Cassia obtusifolia, CASOB); test: as above; details: post-emerge, 14 days after application, rating scale 0-100
# Outline: as §2
# [13] = tested on: large crabgrass (Digitaria sanguinalis, DIGSA); test: as above; details: post-emerge, 14 days after application, rating scale 0-100
# Outline: as §2
# [14] = tested on: johnsongrass (Sorghum halepense, SORHA); test: as above; details: post-emerge, 14 days after application, rating scale 0-100
# Outline: as §2
# [15] = tested on: common ragweed (Ambrosia artemisizfolia L., AMBEL); test: as above; details: post-emerge, 14 days after application, rating scale 0-100
# Outline: as §2
# [16] = tested on: green foxtail (Setaria viridis, SETVI); test: as above; details: post-emerge, 14 days after application, rating scale 0-100
# Outline: as §2
# [17] = tested on: ivyleaf morningglory (Ipomoea hederacea, IPOHE); test: as above; details: post-emerge, 14 days after application, rating scale 0-100
# Outline: as §2
# [18] = tested on: velvetleaf (Abutilon theophrasti, ABUTH); test: as above; details: post-emerge, 14 days after application, rating scale 0-100
# Outline: as §2
# [19] = tested on: upland rice (Oryza sp., var. Tebonnet, RICE); test: Post-emerge test, crop safety; details: post-emerge, 14 days after application, rating scale 0-100
# Outline: (§3)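 Plants grown in 10 cm pots of sandy loam mix received acetone-dissolved compounds through a moving flat-fan nozzle. Doses ranged from 15 to 1000 g ai/ha. Pre-emerge pots were seeded one day earlier, post-emerge pots 8–21 days earlier. Fourteen days on, each pot was graded 0–100 for damage.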
# [20] = tested on: field corn (Zea mays L., var. Dekalb 535, CORN); test: Post-emerge test, crop safety; details: post-emerge, 14 days after application, rating scale 0-100
# Outline: as §3
# [21] = tested on: redroot pigweed (Amaranthus retroflexus, AMARE); test: Pre-emerge test, greenhouse herbicide activity screening; details: rated 14 days after application, 0 = no damage, 100 = complete death
# Outline: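 Compounds in acetone were track-sprayed at 187 l/ha, 15–1000 g ai/ha, onto sandy loam pots. Pre-emerge seeds were sown one day before spraying, with surface watering afterwards. Post-emerge plants were at the 2–3 leaf stage and sprayed with 0.25% v/v non-ionic surfactant. Injury was rated 0–100 at 14 days.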
# [22] = tested on: upland rice (Oryza sp., var. Tebonnet, RICE); test: Pre-emerge test, crop safety; details: rated 14 days after application, 0 = no damage, 100 = complete death
# Outline: as §3
# [23] = tested on: field corn (Zea mays L., var. Dekalb 535, CORN); test: Pre-emerge test, crop safety; details: rated 14 days after application, 0 = no damage, 100 = complete death
# Outline: as §3
compound,measurement,setting,value
COc1c(Cl)cc(F)c(-n2c(=O)cc(C(F)(F)F)n(C)c2=O)c1NC(=O)c1cnc2ccccc2n1 [2-105],"Pre-emerge Herbicidal Activity, phytotoxicity rating (0-100), CHEAL",[1]; 63 g ai/ha,100
same,"Pre-emerge Herbicidal Activity, phytotoxicity rating (0-100), CHEAL",[1]; 250 g ai/ha,100
same,"Pre-emerge Herbicidal Activity, phytotoxicity rating (0-100), ECHCG",[2]; 63 g ai/ha,20
same,"Pre-emerge Herbicidal Activity, phytotoxicity rating (0-100), ECHCG",[2]; 250 g ai/ha,100
same,"Pre-emerge Herbicidal Activity, phytotoxicity rating (0-100), CASOB",[3]; 63 g ai/ha,30
same,"Pre-emerge Herbicidal Activity, phytotoxicity rating (0-100), CASOB",[3]; 250 g ai/ha,60
same,"Pre-emerge Herbicidal Activity, phytotoxicity rating (0-100), DIGSA",[4]; 63 g ai/ha,90
same,"Pre-emerge Herbicidal Activity, phytotoxicity rating (0-100), DIGSA",[4]; 250 g ai/ha,100
same,"Pre-emerge Herbicidal Activity, phytotoxicity rating (0-100), SORHA",[5]; 63 g ai/ha,40
same,"Pre-emerge Herbicidal Activity, phytotoxicity rating (0-100), SORHA",[5]; 250 g ai/ha,95
same,"Pre-emerge Herbicidal Activity, phytotoxicity rating (0-100), SETVI",[6]; 63 g ai/ha,100
same,"Pre-emerge Herbicidal Activity, phytotoxicity rating (0-100), SETVI",[6]; 250 g ai/ha,100
same,"Pre-emerge Herbicidal Activity, phytotoxicity rating (0-100), IPOHE",[7]; 63 g ai/ha,20
same,"Pre-emerge Herbicidal Activity, phytotoxicity rating (0-100), IPOHE",[7]; 250 g ai/ha,95
same,"Pre-emerge Herbicidal Activity, phytotoxicity rating (0-100), ABUTH",[8]; 63 g ai/ha,100
same,"Pre-emerge Herbicidal Activity, phytotoxicity rating (0-100), ABUTH",[8]; 250 g ai/ha,100
same,phytotoxicity rating CHEAL,[9]; 63 g ai/ha,80
same,phytotoxicity rating CHEAL,[9]; 250 g ai/ha,90
same,phytotoxicity rating ECHCG,[10]; 63 g ai/ha,10
same,phytotoxicity rating ECHCG,[10]; 250 g ai/ha,30
same,phytotoxicity rating AMARE,[11]; 63 g ai/ha,100
same,phytotoxicity rating AMARE,[11]; 250 g ai/ha,100
same,phytotoxicity rating CASOB,[12]; 63 g ai/ha,80
same,phytotoxicity rating CASOB,[12]; 250 g ai/ha,80
same,phytotoxicity rating DIGSA,[13]; 63 g ai/ha,0
same,phytotoxicity rating DIGSA,[13]; 250 g ai/ha,10
same,phytotoxicity rating SORHA,[14]; 63 g ai/ha,0
same,phytotoxicity rating SORHA,[14]; 250 g ai/ha,30
same,phytotoxicity rating AMBEL,[15]; 63 g ai/ha,100
same,phytotoxicity rating AMBEL,[15]; 250 g ai/ha,100
same,phytotoxicity rating SETVI,[16]; 63 g ai/ha,70
same,phytotoxicity rating SETVI,[16]; 250 g ai/ha,100
same,phytotoxicity rating IPOHE,[17]; 63 g ai/ha,100
same,phytotoxicity rating IPOHE,[17]; 250 g ai/ha,100
same,phytotoxicity rating ABUTH,[18]; 63 g ai/ha,100
same,phytotoxicity rating ABUTH,[18]; 250 g ai/ha,100
same,phytotoxicity rating RICE,[19]; 63 g ai/ha,0
same,phytotoxicity rating RICE,[19]; 250 g ai/ha,30
same,phytotoxicity rating CORN,[20]; 63 g ai/ha,0
same,phytotoxicity rating CORN,[20]; 250 g ai/ha,10
same,"Pre-emerge Herbicidal Activity, phytotoxicity rating (0-100), AMARE",[21]; 63 g ai/ha,100
same,"Pre-emerge Herbicidal Activity, phytotoxicity rating (0-100), AMARE",[21]; 250 g ai/ha,100
same,"Pre-emerge phytotoxicity rating (0-100), crop damage, RICE",[22]; 63 g ai/ha,50
same,"Pre-emerge phytotoxicity rating (0-100), crop damage, RICE",[22]; 250 g ai/ha,70
same,"Pre-emerge phytotoxicity rating (0-100), crop damage, CORN",[23]; 63 g ai/ha,10
same,"Pre-emerge phytotoxicity rating (0-100), crop damage, CORN",[23]; 250 g ai/ha,10
